Results taken from patent US10328027B2, “Assisted particle size reduction process” (HOVIONE INTERNATIONAL LTD, priority 2014, dated 2019).
Values belong to the compound of their own block, whether it stands above or below them.

Assay: Particle size distribution (Dv10, Dv50, Dv90, span) of processed API particles
Format: physicochemical
Text: The most common approach for expressing particle size results is to report Dv10, Dv50, and Dv90 values based on a volume distribution. The span calculation [(Dv90−Dv10)/Dv50] is the most common format to express distribution width.
The terms Dv10, Dv50, and Dv90 as discussed herein are known to those skilled in the art. Dv50 refers to the maximum particle diameter below which 50% of the sample volume exists. Dv90 refers to the maximum particle diameter below which 90% of the sample volume exists. Dv10 refers to the maximum particle diameter below which 10% of the sample volume exists. The term particle size distribution span refers to the result of the calculation [(Dv90−Dv10)/Dv50].

[1] = Comparison, process of WO2011131947 (water), product isolated by spray drying (45° C.)
[2] = Comparison, process of WO2011131947, suspension in anti-solvent water, after size reduction (750 bar, 45 cycles)
[3] = Example 2, invention, product isolated by spray drying (45° C.)
[4] = Example 2, invention, suspension in water/acetone, after particle size reduction (microfluidizer 750 bar, 45 cycles)
[5] = Example 2, invention, water/acetone, after aging for 22 hours
[6] = Example 1, after aging for 20 hours without stirring at room temperature
[7] = Example 1, product isolated by spray drying (100° C.) after distillation to approx. 100% heptane
[8] = Example 1, suspension in n-heptane/ethyl acetate, after particle size reduction (microfluidizer 400 bar, 50 cycles)

Dv10 [1]: 0.99 μm
Dv50 [1]: 1.94 μm
Dv90 [1]: 3.60 μm
span [(Dv90-Dv10)/Dv50] [1]: 1.4
Dv10 [2]: 1.28 μm
Dv50 [2]: 2.44 μm
Dv90 [2]: 4.45 μm
span [(Dv90-Dv10)/Dv50] [2]: 1.3
Dv10 [3]: 1.38 μm
Dv50 [3]: 2.42 μm
Dv90 [3]: 4.18 μm
span [(Dv90-Dv10)/Dv50] [3]: 1.2
Dv10 [4]: 0.92 μm
Dv50 [4]: 1.81 μm
Dv90 [4]: 3.39 μm
span [(Dv90-Dv10)/Dv50] [4]: 1.4
Dv10 [5]: 1.42 μm
Dv50 [5]: 2.53 μm
Dv90 [5]: 4.43 μm
span [(Dv90-Dv10)/Dv50] [5]: 1.2
Structure (SMILES): CCC(=O)O[C@]1(C(=O)SCF)[C@H](C)C[C@H]2[C@@H]3C[C@H](F)C4=CC(=O)C=C[C@]4(C)[C@@]3(F)[C@@H](O)C[C@@]21C [Fluticasone propionate]

Structure (SMILES): C[N+]1(C)[C@@H]2C[C@@H](OC(=O)C(O)(c3cccs3)c3cccs3)C[C@H]1[C@@H]1O[C@@H]12 [Tiotropium Bromide]
Dv10 [6]: 0.78 μm
Dv50 [6]: 3.33 μm
Dv90 [6]: 7.45 μm
span [(Dv90-Dv10)/Dv50] [6]: 2.0
Dv10 [7]: 0.83 μm
Dv50 [7]: 3.02 μm
Dv90 [7]: 7.05 μm
span [(Dv90-Dv10)/Dv50] [7]: 2.1
Dv10 [8]: 0.67 μm
Dv50 [8]: 2.98 μm
Dv90 [8]: 7.09 μm
span [(Dv90-Dv10)/Dv50] [8]: 2.2
